Patent US20190060298A1, “NEW DRUG FOR THE TREATMENT AND/OR PREVENTION OF DEPRESSIVE DISORDERS” (SORBONNE UNIVERSITE, priority 2013, published 2019)

Assays:
[1] = system: Nrf2-null mice; assay: Depression-like phenotype of Nrf2-null mice after CMS; format: in vivo; details: Nrf2-null mice after three weeks of CMS; Tempol 288 μmol/kg/day from one week before CMS to end
Procedure: (§1) Nrf2-null mice were backcrossed onto the C57BL/6 J background for seven generations using alternating male and female stock mice from the CNRS TAAM UPS44 (Orléans). The resulting wild-type (Nrf2+/+) and Nrf2−/− mice were genotyped and only male mice at 6 weeks old at the beginning of the experiments were used. The level of oxidative stress in mice was first evaluated through the measure of lipid peroxidation. Lipid peroxidation was assessed by measuring TBARS formation with a commercial assay kit (Cayman Chemical, Ann Arbor, Mich., USA), in accordance with the manufacturer's instructions. TBARS concentration was calculated from an MDA standard curve and normalized.
(§2) To examine the depression-like phenotype of Nrf2-null mice, the helplessness behaviour, anhedonia and HPA hyperactivity (corticosterone, and adrenal gland weight) were assessed before and after a chronic mild stress (CMS) protocol. The neuroanatomical morphology of hippocampus in mice was estimated using Golgi Staining procedure. Tempol (4-hydroxy-2,2,6,6-tetramethylpiperidine 1-oxyl, Sigma-Aldrich, St Louis, Mo., USA), which was administered at a dose of 288 μmol/kg/day (Wilcox, 2010), was dissolved in distilled water and delivered via ALZET osmotic mini-pumps (1004, Charles River Laboratories, France). […]

[2] = system: catalase; assay: Catalase activity in hippocampus; format: in vivo, Sprague-Dawley rats; details: 288 μmol/kg/day, 15 days from D11; D31
Procedure: The animals were decapitated and the left hippocampus was homogenized in ice-cold buffer (20 mM Hepes pH 7.2, 1 mM EGTA, 210 mM mannitol, 70 mM sucrose). Homogenates were centrifuged and the supernatants were retained for analysis. Catalase and total SOD activities were immediately determined with commercially available kits (Cayman Chemical, Ann Arbor, Mich., USA), in accordance with the manufacturer's instructions. SOD and catalase specific activities are expressed as units per mg of hippocampus and as nmoles of formaldehyde formed per minute per mg of hippocampal tissue, respectively.
(§3) Tempol (4-hydroxy-2,2,6,6-tetramethylpiperidine 1-oxyl), which was administered at a dose of 288 μmol/kg/day [Sigma-Aldrich, St Louis, Mo., USA]), was dissolved in distilled water and delivered via ALZET osmotic mini-pumps (2002, Charles River Laboratories, France). Tempol- or distilled water-filled pumps were implanted subcutaneously on the back of intruder rats under light anesthesia with isofluorane, 11 days after completion of the social-defeat procedure (D11), and were left in place for 15 days.

[3] = system: CA3 pyramidal cells; assay: CA3 dendritic architecture in Nrf2-null mice; format: in vivo; details: Tempol 288 μmol/kg/day, osmotic mini-pump, 4 weeks
Procedure: as §1, §2

[4] = system: Sprague-Dawley rats; assay: Forced swimming test after sensitization paradigm; format: in vivo; details: V animals; TEMPOL 288 μmol/kg/day 15 days from D11; after three weeks of CMS applied at D31
Procedure: (§4) Sprague-Dawley rats were subjected to chronic social defeat (CSD) and then, four weeks later, to three weeks of chronic mild stress (SSP rats). The chronic mild stress protocol (CMS) was performed as previously described (see Blugeot et al., 2011). The control rats were control intruders (not subjected to CSD) not exposed to the three weeks of CMS (C rats).
(§5) The CMS protocol is derived from that described by Willner et al. (1992). Briefly, various mild stresses were applied every day, over a period of three weeks. Briefly, from Monday to Friday, every morning, animals were placed in a small cage (10×16×15 cm) for 1 hour. In the afternoon, they were shaken for 10 min (Monday and Thursday), placed in a small cage containing water (2 cm high, Tuesday) or placed in another cage for 4 hours (Wednesday and Friday). Every night, the cage was inclined (45°, Tuesday and Thursday) or contained wet bedding (Wednesday and Friday). On Saturday and Sunday, the rats were subjected to a reversed dark/light cycle for 30 min, every three hours.
Four days after the end of SSP paradigm (D52), FST experiments were performed between 08:00 and 11:30. Experiments were performed as described by Becker et al. (2008, Mol. Psychiatry 13, 1079) and Blugeot et al. (2011). Immobility time was measured with a stopwatch. […] A trained experimenter blind to the treatment observed the animals and measured immobility time. […]

[5] = system: CA3 neurons; assay: Golgi staining, hippocampal CA3 neuron morphology; format: in vivo, Sprague-Dawley rats; details: 288 μmol/kg/day, 15 days
Procedure: At D11 and D31, unperfused brains were rapidly removed and processed with the FD Rapid Golgistain kit (FD NeuroTechnologies), as previously described by Blugeot et al. (2011). Histological quantification: for each rat, the total dendrite length of apical CA3 dendritric branches was measured for selected neurons with AxioVision 4.7 software and a Zeiss Imager M1 microscope. 3-5 hippocampal neurons per rat are selected for measurement by an investigator blind to the origin of the experimental animal. Dendritic tracing was quantified by Sholl analysis (Sholl, 1953). The number of intersections between the dendrites and the concentric circles was counted and plotted as a function of the distance from the soma. The density of dendritic spines was estimated by counting the number of apical dendritic spines in 3-4 segments of 15 μm located in the stratum radiatum, at 1000× resolution. Spine density was expressed as the number of spines per 15 μm length of apical dendrite.
as §3

[6] = system: lipid peroxidation (MDA); assay: Lipid peroxidation (TBARS/MDA) in hippocampus; format: in vivo, Sprague-Dawley rats; details: V rats; 288 μmol/kg/day, 15 days from D11; D31
Procedure: The right hippocampus was homogenized in ice-cold buffer (Tris-HCl 50 mM pH 7.5, 150 mM NaCl, 1 mM EDTA) and used for TBARS and glutathione peroxidase (GPx) assays.
For the TBARS assay, protease inhibitors (50 μl/ml), DOC (1%), SDS (0.1%) and Triton® X-100 (0.5%) were added immediately in ice-cold buffer. For the GPx assay, 0.1 M dithiothreitol was added immediately in ice-cold buffer. The homogenates were centrifuged and the supernatants were retained for analysis. Lipid peroxidation was assessed by measuring TBARS formation with a commercial assay kit (Cayman Chemical, Ann Arbor, Mich., USA), in accordance with the manufacturer's instructions. TBARS concentration was calculated from an MDA standard curve and normalized. Total GPx activity in the homogenate was measured in accordance with the kit manufacturer's instructions (Cayman Chemical, Ann Arbor, Mich., USA). GPx specific activity is expressed as nmoles of NADPH consumed per minute per mg of hippocampal tissue. No difference in hippocampal weight was observed between defeated, vulnerable, non-vulnerable and control animals.
(§6) Tempol (4-hydroxy-2,2,6,6-tetramethylpiperidine 1-oxyl), which was administered at a dose of 288 μmol/kg/day [Sigma-Aldrich, St Louis, Mo., USA]), was dissolved in distilled water and delivered via ALZET osmotic mini-pumps (2002, Charles River Laboratories, France). […]

[7] = system: Sprague-Dawley rats; assay: Depression-like profile after sensitization paradigm (CSD then CMS); format: in vivo; details: TEMPOL administrated before CMS
Procedure: as §4, §5, §6

CC1(C)CC(O)CC(C)(C)N1[O] [TEMPOL, 4-hydroxy-2,2,6,6-tetramethylpiperidin-1-oxyl]
depression-like phenotype (helplessness behaviour, anhedonia, HPA hyperactivity) [1]: prevented
catalase activity [2]: no effect
dendritic retraction in CA3 pyramidal cells [3]: prevented
immobility time in the forced swimming test [4]: prevented the increase in immobility time
dendritic trees (total apical dendrite length of CA3 neurons) ([5]; NV and V animals, D31): fully restored
spine density (CA3 dendritic spines) ([5]; NV and V animals, D31): fully restored
total length of hippocampal neurons ([5]; non-vulnerable and control animals vs vehicle-treated): tends to increase
lipid peroxidation (MDA) [6]: lack of
depression-like profile generated by the CMS [7]: abolished
